Assay results from patent US12403136B2, “Cannabinoid derivatives as pharmaceutically active compounds and methods of preparation thereof” (JAZZ PHARMACEUTICALS RESEARCH UK LIMITED, priority 2019, dated 2025).

Test system: mouse model of generalised seizure (tonic hind limb extensor convulsions)
Assay: Maximal electroshock seizure threshold (MEST) test in the mouse
Settings: for % change from vehicle: change in CC50; for CC50 +/− SEM: vehicle CC50 21.0 mA
Protocol: The efficacy of exemplary cannabinoid derivatives according to Formula I and Formula II were tested in a mouse model of generalised seizure, the maximal electroshock seizure threshold (MEST) test.
The maximal electroshock seizure threshold (MEST) test is widely utilized preclinically to evaluate pro- or anti-convulsant properties of test compounds (Loscher et al., 1991).
In the MEST test the ability of a drug to alter the seizure threshold current required to induce hind limb tonic extensor convulsions is measured according to an “up and down” method of shock titration (Kimball et al., 1957). An increase in seizure threshold is indicative of anti-convulsant effect.
Conversely, a reduction in seizure threshold is indicative of a pro-convulsant effect as observed with known convulsant agents such as picrotoxin.
The ability of a test compound to alter the stimulus intensity, expressed as current (mA), required to induce the presence of tonic hind limb extensor convulsions, is assessed in the MEST.
Naïve mice were acclimatised to the procedure room in their home cages for up to 7 days, with food and water available ad libitum.
All animals were weighed at the beginning of the study and randomly assigned to treatment groups based on a mean distribution of body weight across groups.
The first animal within a treatment group was given a shock at the expected or estimated CC50 current. For subsequent animals, the current was lowered or raised depending on the convulsions outcome from the preceding animal.
Data generated from each treatment group were used to calculate the CC50±SEM values for the treatment group.
Vehicle: (5% ethanol, 5% solutol in 90% Saline) was prepared as follows: 2 mL of ethanol, 2 mL of solutol were warmed to 60° C., in 36 mL of saline (1:1:18).
The test compounds used were 12a, 12b, 18a and 18b. Test compounds were administered at 200 mg/kg (i.p.) in a 1:1:18 ethanol:solutol:saline formulation.
The data for each treatment group were recorded as the number of +'s and 0's at each current level employed and this information is then used to calculate the CC50 value (current required for 50% of the animals to show seizure behaviour)±standard error.
Test compound effects were also calculated as percentage change in CC50 from the vehicle control group.
Significant difference between drug-treated animals and controls were assessed according to Litchfield and Wilcoxon (1949).

[1] = 200 mg/kg i.p., 120 min post dose
[2] = 200 mg/kg i.p., test 120 min post dose

Compound: C=C(C)[C@@H]1CCC(C)=C[C@H]1c1c(O)cc2c(c1O)[C@H](CC)CCC2 [Compound 12a]
- % change from vehicle (200 mg/kg i.p., 60 min post dose): 157%
- CC50 +/− SEM (200 mg/kg i.p., test 60 min post dose): 54.0 +/− 0.2 mA

Compound: C=C(C)[C@@H]1CCC(C)=C[C@H]1c1c(O)cc2c(c1O)[C@H](CC)CCO2 [Compound 12b]
- % change from vehicle (200 mg/kg i.p., 30 min post dose): 109%
- CC50 +/− SEM (200 mg/kg i.p., test 30 min post dose): 43.8 +/− 0.2 mA

Compound: C=C(C)[C@@H]1CCC(C)=C[C@H]1c1c(O)cc(O)c2c1CCC[C@H]2CC [Compound 18a]
- % change from vehicle [1]: 99%
- CC50 +/− SEM [2]: 41.8 +/− 0.5 mA

Compound: C=C(C)[C@@H]1CCC(C)=C[C@H]1c1c(O)cc(O)c2c1OCC[C@H]2CC [Compound 18b]
- % change from vehicle [1]: 92%
- CC50 +/− SEM [2]: 40.3 +/− 0.8 mA

Compound: CN1C(=O)CN=C(c2ccccc2)c2cc(Cl)ccc21 [Diazepam, diazepam, reference compound]
- % change from vehicle (diazepam 2.5 mg/kg i.p., 30 min post dose): 66%
